Data: paper PMC8286840, “Identifying SARS-CoV-2 antiviral compounds by screening for small molecule inhibitors of Nsp3 papain-like protease” (Biochemical Journal, 2021)
Where a name gives a salt, the structure may show the parent alone. Read-outs that look alike come from different tables or passages of the source.

How the values were obtained:
[1] = target: T1, SARS-CoV-2 PLpro (nsp3 1564–1878) (Severe acute respiratory syndrome coronavirus 2, UniProt P0DTD1); assay: biochemical; set-up: FRET-quenched peptide (Pro3) cleavage by PLpro, 10 min pre-incubation, slope over 20 min, normalised to no-compound control; settings: high concentration screen, read-out: % of control remaining
[2] = target: T1, SARS-CoV-2 PLpro (nsp3 1564–1878); assay: biochemical; set-up: FRET-quenched peptide (Pro3) cleavage by PLpro, 10 min pre-incubation, slope over 20 min, normalised to no-compound control; settings: low concentration screen, read-out: % of control remaining

SMILES: COc1cc2c(cc1OC)[C@H]1CC(=O)[C@H](CC(C)C)CN1CC2 [Tetrabenazine]
- remaining activity at 3.75 µM ([1]; Well no.=7492): 94.7%
- remaining activity at 1.25 µM ([2]; Well no.=7492): 94.6%

SMILES: CCCC1O[C@@H]2C[C@H]3[C@@H]4CCC5=CC(=O)C=C[C@]5(C)[C@H]4[C@@H](O)C[C@]3(C)[C@]2(C(=O)CO)O1 (stereo partly shown) [Budesonide]
- remaining activity at 3.75 µM ([1]; Well no.=81): 102%
- remaining activity at 3.75 µM ([1]; Well no.=6659): 98.7%
- remaining activity at 1.25 µM ([2]; Well no.=81): 105%
- remaining activity at 1.25 µM ([2]; Well no.=6659): 98.6%

SMILES: O=C(O)c1ccc(-c2c[nH]c3ncc(-c4ccccc4)cc23)cc1C1CCCC1 [2-cyclopentyl-4-(5-phenyl-1H-pyrrolo[2,3-b]pyridin-3-yl)benzoic acid]
- remaining activity at 3.75 µM ([1]; Well no.=5864): 94.4%
- remaining activity at 1.25 µM ([2]; Well no.=5864): 93%

SMILES: Cn1cc(/C=C2\C(=O)Nc3cccnc32)c2ccccc21 [GW441756]
- remaining activity at 3.75 µM ([1]; Well no.=2791): 103%
- remaining activity at 1.25 µM ([2]; Well no.=2791): 103%

SMILES: CCOC(=O)[C@H](CCc1ccccc1)N[C@@H](C)C(=O)N1[C@H](C(=O)O)C[C@@H]2CCC[C@@H]21 [Ramipril]
- remaining activity at 3.75 µM ([1]; Well no.=2195): 93.2%
- remaining activity at 3.75 µM ([1]; Well no.=7446): 98.5%
- remaining activity at 1.25 µM ([2]; Well no.=2195): 94.4%
- remaining activity at 1.25 µM ([2]; Well no.=7446): 99.8%

SMILES: CCCCCCCCCCOCCC(=O)O [4-Oxatetradecanoic acid]
- remaining activity at 3.75 µM ([1]; Well no.=4357): 107%
- remaining activity at 1.25 µM ([2]; Well no.=4357): 101%

SMILES: CC1=C(C(=O)O)N2C(=O)[C@@H](NC(=O)[C@H](N)C3=CCC=CC3)[C@H]2SC1 [Cephradine]
- remaining activity at 3.75 µM ([1]; Well no.=236): 100%
- remaining activity at 1.25 µM ([2]; Well no.=236): 98.9%

SMILES: CC(C)Cc1ccc(C(C)C(=O)O)cc1 (stereo not shown) [Ibuprofen]
- remaining activity at 3.75 µM ([1]; Well no.=1901): 97%
- remaining activity at 1.25 µM ([2]; Well no.=1901): 95.1%

SMILES: COc1c(N2C[C@@H]3CCCN[C@@H]3C2)c(F)cc2c(=O)c(C(=O)O)cn(C3CC3)c12 [Moxifloxacin HCl]
- remaining activity at 3.75 µM ([1]; Well no.=4878): 93.6%
- remaining activity at 1.25 µM ([2]; Well no.=4878): 98.1%

SMILES: CCN[C@H]1C[C@H](C)S(=O)(=O)c2sc(S(N)(=O)=O)cc21 [Dorzolamide HCl]
- remaining activity at 3.75 µM ([1]; Well no.=5205): 95%
- remaining activity at 1.25 µM ([2]; Well no.=5205): 92.8%

SMILES: COc1ccc(C[C@H](C)NC[C@@H](O)c2ccc(O)c(NC=O)c2)cc1 [Formoterol (Fumarate)]
- remaining activity at 3.75 µM ([1]; Well no.=6413): 95.1%
- remaining activity at 1.25 µM ([2]; Well no.=6413): 101%

SMILES: O=c1c2ccccc2nc2n1CCc1c-2[nH]c2ccccc12 [Rutaecarpine]
- remaining activity at 3.75 µM ([1]; Well no.=1396): 99.4%
- remaining activity at 3.75 µM ([1]; Well no.=3709): 101%
- remaining activity at 1.25 µM ([2]; Well no.=1396): 96.2%
- remaining activity at 1.25 µM ([2]; Well no.=3709): 100%

SMILES: CN1CCC(=C2c3ccccc3CC(=O)c3sccc32)CC1 [Ketotifen (fumarate)]
- remaining activity at 3.75 µM ([1]; Well no.=7421): 97%
- remaining activity at 1.25 µM ([2]; Well no.=7421): 100%

SMILES: CC(C)CN(C[C@@H](O)[C@H](Cc1ccccc1)NC(=O)O[C@H]1CO[C@H]2OCC[C@H]21)S(=O)(=O)c1ccc(N)cc1 [Darunavir]
- remaining activity at 3.75 µM ([1]; Well no.=7318): 108%
- remaining activity at 1.25 µM ([2]; Well no.=7318): 108%

SMILES: O=c1[nH]c(=O)c2nc[nH]c2[nH]1 [Xanthine]
- remaining activity at 3.75 µM ([1]; Well no.=7203): 96.5%
- remaining activity at 1.25 µM ([2]; Well no.=7203): 97.4%

SMILES: CC[C@H]1CN(c2nc(N)c(C(N)=O)nc2Cl)CCN1C1CCN(Cc2ccc(Cl)cc2)CC1 [SCH 546738]
- remaining activity at 3.75 µM ([1]; Well no.=8659): 106%
- remaining activity at 1.25 µM ([2]; Well no.=8659): 103%

SMILES: CCC(C)n1ncn(-c2ccc(N3CCN(c4ccc(OC[C@H]5CO[C@](Cn6cncn6)(c6ccc(Cl)cc6Cl)O5)cc4)CC3)cc2)c1=O (mixture of isomers) [Itraconazole]
- remaining activity at 3.75 µM ([1]; Well no.=2228): 94.2%
- remaining activity at 1.25 µM ([2]; Well no.=2228): 96.3%

SMILES: C=C[C@@]1(C)CC(=O)[C@]2(O)[C@@]3(C)[C@@H](O)CCC(C)(C)[C@@H]3[C@H](O)[C@H](OC(C)=O)[C@@]2(C)O1 [Forskolin]
- remaining activity at 3.75 µM ([1]; Well no.=423): 98.9%
- remaining activity at 3.75 µM ([1]; Well no.=3281): 99.2%
- remaining activity at 3.75 µM ([1]; Well no.=8331): 95.4%
- remaining activity at 1.25 µM ([2]; Well no.=423): 99.9%
- remaining activity at 1.25 µM ([2]; Well no.=3281): 99.5%
- remaining activity at 1.25 µM ([2]; Well no.=8331): 98.2%

SMILES: CC(=O)OCC(CCn1cnc2cnc(N)nc21)COC(C)=O [Famciclovir]
- remaining activity at 3.75 µM ([1]; Well no.=2074): 104%
- remaining activity at 1.25 µM ([2]; Well no.=2074): 101%

SMILES: O=[N+]([O-])/C=C/c1ccc2c(c1)OCO2 [Syk Inhibitor III]
- remaining activity at 3.75 µM ([1]; Well no.=2599): 97.6%
- remaining activity at 1.25 µM ([2]; Well no.=2599): 97.9%

SMILES: OC1c2ccccc2N=C2CCCN21 (stereo not shown) [Peganole]
- remaining activity at 3.75 µM ([1]; Well no.=3541): 104%
- remaining activity at 1.25 µM ([2]; Well no.=3541): 95.9%

SMILES: NC(=O)Cc1cccc(C(=O)c2ccccc2)c1N [Nepafenac]
- remaining activity at 3.75 µM ([1]; Well no.=4761): 104%
- remaining activity at 1.25 µM ([2]; Well no.=4761): 103%

SMILES: CC[C@@H](N)CNc1ccnc(-c2cc(-c3cnn(C)c3)ccc2O)n1 [CRT0066101 dihydrochloride]
- remaining activity at 3.75 µM ([1]; Well no.=6498): 90.1%
- remaining activity at 1.25 µM ([2]; Well no.=6498): 89.1%

SMILES: CCCN(CCc1cccs1)[C@H]1CCc2c(O)cccc2C1 [Rotigotine (Hydrochloride)]
- remaining activity at 3.75 µM ([1]; Well no.=8157): 89.4%
- remaining activity at 1.25 µM ([2]; Well no.=8157): 96.4%

SMILES: O=C1C=C2C(=CCOC2O)O1 (stereo not shown) [Patulin]
- remaining activity at 3.75 µM ([1]; Well no.=3543): 103%
- remaining activity at 1.25 µM ([2]; Well no.=3543): 105%

SMILES: Nc1nccc(Oc2ccc(NC(=O)c3c[nH]cc(-c4ccc(F)cc4)c3=O)cc2F)c1Cl [BMS 794833]
- remaining activity at 3.75 µM ([1]; Well no.=5150): 96.4%
- remaining activity at 1.25 µM ([2]; Well no.=5150): 100%

SMILES: O=c1ccc2ccc(O)c(O)c2o1 [Daphnetin]
- remaining activity at 3.75 µM ([1]; Well no.=405): 101%
- remaining activity at 1.25 µM ([2]; Well no.=405): 102%

SMILES: OCc1ccc(-c2ccc(-c3ccc(CO)s3)o2)s1 [RITA (NSC 652287)]
- remaining activity at 3.75 µM ([1]; Well no.=4741): 108%
- remaining activity at 1.25 µM ([2]; Well no.=4741): 103%

SMILES: NC(N)=NCCNS(=O)(=O)c1cccc2cnccc12 [HA 1004, Dihydrochloride]
- remaining activity at 3.75 µM ([1]; Well no.=2433): 108%
- remaining activity at 1.25 µM ([2]; Well no.=2433): 111%

SMILES: CC(=O)O[C@H]1C[C@@H]2CC[C@@H]3[C@H](CC[C@@]4(C)[C@H]3C[C@H]([N+]3(C)CCCCC3)[C@@H]4OC(C)=O)[C@@]2(C)C[C@@H]1N1CCCCC1 [Vecuronium]
- remaining activity at 3.75 µM ([1]; Well no.=2014): 103%
- remaining activity at 1.25 µM ([2]; Well no.=2014): 103%

SMILES: Cc1cc(NC(=O)Nc2ccc(N(C)C)cc2)c2cc(F)cc(F)c2n1 [SB-408124 (Hydrochloride)]
- remaining activity at 3.75 µM ([1]; Well no.=6939): 98.8%
- remaining activity at 1.25 µM ([2]; Well no.=6939): 99.4%

SMILES: CO[C@@H]1COCC[C@@H]1N[C@@H]1CC[C@@](C(=O)N2CCc3ncc(C(F)(F)F)cc3C2)(C(C)C)C1 [MK-0812 (Succinate)]
- remaining activity at 3.75 µM ([1]; Well no.=8321): 97.9%
- remaining activity at 1.25 µM ([2]; Well no.=8321): 97.5%

SMILES: N[C@@H](Cn1cc(I)c(=O)[nH]c1=O)C(=O)O [S-5-Iodowillardiine]
- remaining activity at 3.75 µM ([1]; Well no.=1340): 99.5%
- remaining activity at 1.25 µM ([2]; Well no.=1340): 102%
